Experiment [1] in a line: Cytotoxicity activity against human A549 cells assessed as growth inhibition measured after 48 hrs by MTT assay. The experiment is classed as functional, cell-based. The following applies: A549, 48 h. (Tetrazolium assays rely on reduction of a dye to a coloured formazan, in cell work by metabolically active cells.)
A short description of experiment [2]: Cytotoxicity activity against human MCF7 cells assessed as growth inhibition measured after 48 hrs by MTT assay. It counts as functional, cell-based. The following applies: MCF7, 48 h.

Usually IC50 stands for the concentration needed to halve the response being measured.

For the compound `CC(=O)O[C@H]1C(=O)[C@@]2(C)[C@H]([C@H](OC(=O)c3ccccc3)[C@]3(O)C[C@H](OC(=O)[C@H](O)[C@@H](NC(=O)c4ccccc4)c4ccccc4)C(C)=C1C3(C)C)[C@]1(OC(C)=O)CO[C@@H]1C[C@@H]2O` [PACLITAXEL], the values for the IC50 in experiment [1] and in experiment [2] were 0.03 µM and 0.06 µM, respectively.

The values above are taken from ChEMBL document CHEMBL3867458, “Chiral Separation of Cytotoxic Flavan Derivatives from Daphne giraldii” (J Nat Prod, 2016).
